Series [1] has as its system Plasmodium falciparum, Strain D6. Description: In vitro antiplasmodial activity, fluorescence-based SYBR Green assay, strain D6. The note with it: D6, 72 h, read-out: IC50 v D6 ± SD. Format: cell-based.
A further series is described as follows: HepG2 cytotoxicity assay. The format is cell-based. The note with it: human.
The nature of series [2]: Murine microsomal stability. Format: in vitro ADME.
For series [3], the system named is Plasmodium yoelii. Description: In vivo parasite suppression at fixed dose, modified 4-day Peters test. The note with it: for inhibition in vivo at 2.5 mg/kg: Plasmodium yoelii, in Mus musculus, po, 120 h, read-out: % Py Suppression; for % Py Suppression: 2.5 mg/kg/d oral, Days 1-4, parasitemia Day 5 vs vehicle control, n = 4. Details: species or system Plasmodium yoelii (female CF1 mice).

For series [4], the system named is Plasmodium yoelii. Description: In vivo efficacy. Details: species or system Plasmodium yoelii (female CF1 mice). The note with it: oral once daily for 4 days, parasitemia Day 5.
In series [5] the test system is Plasmodium yoelii. Description: Single dose cure. The format is in vivo, Plasmodium yoelii (female CF1 mice). The note with it: single oral dose Day 1, 0% parasitemia until Day 30.
Where [6] appears, read: mouse, pooled liver microsomes, pH 7.4.

Molecules are shown by their SMILES.

A word on the IC50: it is the concentration needed to halve the response being measured. For `CCN(CC)CCCC(C)Nc1ccnc2cc(Cl)ccc12` (centres unmarked) [Compound 1, chloroquine], the IC50 in series [1] came out at 0.0096 ± 0.002 µM.

One may read the CC50 as the concentration giving 50% cytotoxicity. In the case of `Clc1ccc2c(Nc3ccc(N4CCOCC4)cc3)ccnc2c1` [Compound 7, 7-chloro-N-(4-morpholinophenyl)quinolin-4-amine], the 50% cytotoxic concentration (CC50) at 24 h in “HepG2 cytotoxicity assay” (HepG2 cells) was more than 200 µM.

In the series “HepG2 cytotoxicity assay” (HepG2 cells), `FC(F)(F)Oc1ccc(-c2cnc3cc(Cl)ccc3c2Nc2ccc(N3CCOCC3)cc2)cc1` [Compound 8, 7-chloro-N-(4-morpholinophenyl)-3-(4-(trifluoromethoxy)phenyl)quinolin-4-amine] yielded a CC50 at 24 h of more than 200 µM.

In turn, `Clc1ccc2c(Nc3ccc(C4COCCN4Cc4ccccc4)cc3)ccnc2c1` (centres unmarked) [Compound 12, N-(4-(4-benzylmorpholin-3-yl)phenyl)-7-chloroquinolin-4-amine] showed a 50% cytotoxic concentration (CC50) at 24 h in “HepG2 cytotoxicity assay” (HepG2 cells) of more than 200 µM.

Regarding `CCN1CCOCC1c1ccc(Nc2ccnc3cc(Cl)ccc23)cc1` (centres unmarked) [Compound 13, 7-chloro-N-(4-(4-ethylmorpholin-3-yl)phenyl)quinolin-4-amine], the CC50 at 24 h in “HepG2 cytotoxicity assay” (HepG2 cells) is more than 200 µM.

As for `CCN1CCOCC1c1ccc(Nc2c(-c3ccc(OC(F)(F)F)cc3)cnc3cc(Cl)ccc23)cc1` (centres unmarked) [Compound 14, 7-chloro-N-(4-(4-ethylmorpholin-3-yl)phenyl)-3-(4-(trifluoromethoxy)phenyl)quinolin-4-amine], the CC50 at 24 h in “HepG2 cytotoxicity assay” (HepG2 cells) was more than 200 µM.

`Clc1ccc2c(Nc3ccc(C4CN(Cc5ccccc5)CCO4)cc3)ccnc2c1` (centres unmarked) [Compound 15, N-(4-(4-benzylmorpholin-2-yl)phenyl)-7-chloroquinolin-4-amine]: the CC50 at 24 h in “HepG2 cytotoxicity assay” (HepG2 cells) amounted to 38 µM.

`FC(F)(F)Oc1ccc(-c2cnc3cc(Cl)ccc3c2Nc2ccc(C3CN(Cc4ccccc4)CCO3)cc2)cc1` (centres unmarked) [Compound 16, N-(4-(4-benzylmorpholin-2-yl)phenyl)-7-chloro-3-(4-(trifluoromethoxy)phenyl)quinolin-4-amine]: in “HepG2 cytotoxicity assay” (HepG2 cells), the CC50 at 24 h is more than 200 µM.

As usually defined, the CLint scaled is the capacity of the preparation to metabolise the compound, expressed as a volume cleared per time. High values mean rapid turnover, low ones slow turnover. For the compound `Clc1ccc2c(Nc3ccc(N4CCN(Cc5ccccc5)CC4)cc3)ccnc2c1` [Compound 17, N-(4-(4-benzylpiperazin-1-yl)phenyl)-7-chloroquinolin-4-amine], the CC50 at 24 h in “HepG2 cytotoxicity assay” (HepG2 cells) is more than 200 µM. In addition, the CLint scaled at 1 μM in series [2] (setting [6]) came to 392 mL/min/kg. For the same compound, the inhibition in vivo at 2.5 mg/kg with Plasmodium yoelii [3] was found to be 0%.

As for `CCN1CCN(c2ccc(Nc3ccnc4cc(Cl)ccc34)cc2)CC1` [Compound 20, 7-chloro-N-(4-(4-ethylpiperazin-1-yl)phenyl)quinolin-4-amine], the CC50 at 24 h in “HepG2 cytotoxicity assay” (HepG2 cells) is more than 200 µM. In series [2] (setting [6]), this compound showed a CLint scaled at 1 μM of 2930 mL/min/kg. Besides, the inhibition in vivo at 2.5 mg/kg with Plasmodium yoelii [3] is 60%. Also, in the series on Plasmodium yoelii [4], the “ED50 v Py” value came out at 1.5 mg/kg/day and the “ED90 v Py” value came out at 8.4 mg/kg/day.

`CN1CCN(c2ccc(Nc3ccnc4cc(Cl)ccc34)cc2)CC1` [Compound 21, 7-chloro-N-(4-(4-methylpiperazin-1-yl)phenyl)quinolin-4-amine] gave an intrinsic metabolic clearance (CLint scaled) at 1 μM in series [2] (setting [6]) of 3780 mL/min/kg.

`CCN1CCN(c2ccc(Nc3ccnc4cc(Cl)c(Cl)cc34)cc2)CC1` [Compound 24, 6,7-dichloro-N-(4-(4-ethylpiperazin-1-yl)phenyl)quinolin-4-amine]: in “HepG2 cytotoxicity assay” (HepG2 cells), the CC50 at 24 h was more than 200 µM.

For the compound `CCN1CCN(c2ccc(Nc3ccnc4cc(Br)ccc34)cc2)CC1` [Compound 25, 7-bromo-N-(4-(4-ethylpiperazin-1-yl)phenyl)quinolin-4-amine], the CC50 at 24 h in the series “HepG2 cytotoxicity assay” (HepG2 cells) turned out to be 48 µM.

The compound `CCN1CCN(c2ccc(Nc3ccnc4cc(C(F)(F)F)ccc34)cc2)CC1` [Compound 26, N-(4-(4-ethylpiperazin-1-yl)phenyl)-7-(trifluoromethyl)quinolin-4-amine] returned a CC50 at 24 h in the series “HepG2 cytotoxicity assay” (HepG2 cells) of more than 200 µM.

The compound `CC(C)(C)N1CCN(c2ccc(Nc3ccnc4cc(Cl)ccc34)cc2)CC1` [Compound 31, N-(4-(4-(tert-butyl)piperazin-1-yl)phenyl)-7-chloroquinolin-4-amine] registered a CC50 at 24 h in “HepG2 cytotoxicity assay” (HepG2 cells) of more than 200 µM. Moreover, the “t1/2 (microsomal stability)” value in series [2] (pooled murine liver microsomes, 1 μM, 0.5 mg/mL protein, 37 °C, 1 h) was “∞”. Moreover, the “compound metabolized over the course of the microsomal experiment” value in series [2] (pooled murine liver microsomes, 1 h) is “no detectable amount of compound was metabolized”. For the same compound, in the series with Plasmodium yoelii [3], the inhibition in vivo at 2.5 mg/kg was 30%. Further, in the series on Plasmodium yoelii [4], the “ED50 v Py” value amounted to 4.0 mg/kg/day and the “ED90 v Py” value amounted to 7.6 mg/kg/day.

With `FC(F)(F)c1ccc(N2CCN(c3ccc(Nc4ccnc5cc(Cl)ccc45)cc3)CC2)cc1` [Compound 32, 7-chloro-N-(4-(4-(4-(trifluoromethyl)phenyl)piperazin-1-yl)phenyl)quinolin-4-amine], the CC50 at 24 h in the series “HepG2 cytotoxicity assay” (HepG2 cells) was more than 200 µM.

In “HepG2 cytotoxicity assay” (HepG2 cells), `Clc1ccc2c(Nc3ccc(N4CCN(C5CC5)CC4)cc3)ccnc2c1` [Compound 33, 7-chloro-N-(4-(4-cyclopropylpiperazin-1-yl)phenyl)quinolin-4-amine] displayed a half-maximal cytotoxic concentration (CC50) at 24 h of more than 200 µM.

`Clc1ccc2c(Nc3ccc(N4CCCCC4)cc3)ccnc2c1` [Compound 34, 7-chloro-N-(4-(piperidin-1-yl)phenyl)quinolin-4-amine]: in the series “HepG2 cytotoxicity assay” (HepG2 cells), the CC50 at 24 h was more than 200 µM.

`CC(C)N1CCC(c2ccc(Nc3ccnc4cc(Cl)ccc34)cc2)CC1` [Compound 35, 7-chloro-N-(4-(1-isopropylpiperidin-4-yl)phenyl)quinolin-4-amine] displayed a CC50 at 24 h in “HepG2 cytotoxicity assay” (HepG2 cells) of more than 200 µM. In series [2] (setting [6]), this compound displayed an intrinsic clearance (CLint scaled) at 1 μM of 124 mL/min/kg. Also, in the series on Plasmodium yoelii [3], the inhibition in vivo at 2.5 mg/kg was 48%. In the series on Plasmodium yoelii [4], the “ED50 v Py” value is 1.1 mg/kg/day and the “ED90 v Py” value was 4.1 mg/kg/day.

In “HepG2 cytotoxicity assay” (HepG2 cells), `CC(C)(C)OC(=O)N1CCN(c2ccc(Nc3ccnc4cc(Cl)ccc34)cc2)CC1` [Compound 36, tert-butyl 4-(4-((7-chloroquinolin-4-yl)amino)phenyl)piperazine-1-carboxylate] displayed a CC50 at 24 h of more than 200 µM.

For the compound `Clc1ccc2c(Nc3ccc(N4CCNCC4)cc3)ccnc2c1` [Compound 38, 7-chloro-N-(4-(piperazin-1-yl)phenyl)quinolin-4-amine], the cytotoxic concentration (CC50) at 24 h in the series “HepG2 cytotoxicity assay” (HepG2 cells) amounted to 54 µM.

Take `Clc1ccc2c(Nc3ccc(C4CCNCC4)cc3)ccnc2c1` [Compound 39, 7-chloro-N-(4-(piperidin-4-yl)phenyl)quinolin-4-amine]: in the series “HepG2 cytotoxicity assay” (HepG2 cells), the CC50 at 24 h worked out at 58 µM.

`CCN1CCC(c2ccc(Nc3ccnc4cc(Cl)ccc34)cc2)CC1` [Compound 40, 7-chloro-N-(4-(1-ethylpiperidin-4-yl)phenyl)quinolin-4-amine] displayed a CLint scaled at 1 μM in series [2] (setting [6]) of 497 mL/min/kg. In the series on Plasmodium yoelii [3], the inhibition in vivo at 2.5 mg/kg stood at 13%. In the series with Plasmodium yoelii [4], the “ED50 v Py” value amounted to 1.8 mg/kg/day and the “ED90 v Py” value is 13 mg/kg/day.

Compound `CCCN1CCC(c2ccc(Nc3ccnc4cc(Cl)ccc34)cc2)CC1` [Compound 41, 7-chloro-N-(4-(1-propylpiperidin-4-yl)phenyl)quinolin-4-amine] displayed a CC50 at 24 h in “HepG2 cytotoxicity assay” (HepG2 cells) of more than 200 µM. For the same compound, the intrinsic clearance (CLint scaled) at 1 μM in series [2] (setting [6]) is 78 mL/min/kg. Further, in the series on Plasmodium yoelii [3], the “% Py Suppression” value stood at 39% and the inhibition in vivo at 2.5 mg/kg was found to be 39%.

Regarding `CCCCN1CCC(c2ccc(Nc3ccnc4cc(Cl)ccc34)cc2)CC1` [Compound 42, N-(4-(1-butylpiperidin-4-yl)phenyl)-7-chloroquinolin-4-amine], the CC50 at 24 h in “HepG2 cytotoxicity assay” (HepG2 cells) is more than 200 µM. Besides, the CLint scaled at 1 μM in series [2] (setting [6]) was 130 mL/min/kg. The inhibition in vivo at 2.5 mg/kg in the series on Plasmodium yoelii [3] was determined as 53%.

As to `CC(C)CN1CCC(c2ccc(Nc3ccnc4cc(Cl)ccc34)cc2)CC1` [Compound 43, 7-chloro-N-(4-(1-isobutylpiperidin-4-yl)phenyl)quinolin-4-amine], in the series “HepG2 cytotoxicity assay”, the cytotoxic concentration (CC50) at 24 h was more than 200 µM. In the series with Plasmodium yoelii [3], the “% Py Suppression” value stood at 91% and the inhibition in vivo at 2.5 mg/kg amounted to 91%. The “SDC (single dose cure)” value in the series on Plasmodium yoelii [5] is on record as 50 mg/kg.

Turning to `CCC(C)N1CCC(c2ccc(Nc3ccnc4cc(Cl)ccc34)cc2)CC1` (centres unmarked) [Compound 44, N-(4-(1-(sec-butyl)piperidin-4-yl)phenyl)-7-chloroquinolin-4-amine], the half-maximal cytotoxic concentration (CC50) at 24 h in “HepG2 cytotoxicity assay” (HepG2 cells) was more than 200 µM. Further, in series [2] (setting [6]), the intrinsic metabolic clearance (CLint scaled) at 1 μM was 98.3 mL/min/kg. Further, the inhibition in vivo at 2.5 mg/kg in the series with Plasmodium yoelii [3] turned out to be 71%.

The term half-life denotes the time needed for the level to fall by half in the phase considered. Compound `CC(C)CN1CCN(c2ccc(Nc3ccnc4cc(Cl)ccc34)cc2)CC1` [Compound 45, 7-chloro-N-(4-(4-isobutylpiperazin-1-yl)phenyl)quinolin-4-amine] came in with a cytotoxic concentration (CC50) at 24 h in the series “HepG2 cytotoxicity assay” (HepG2 cells) of more than 200 µM. In series [2] (setting [6]), this compound had a CLint scaled at 1 μM of 843 mL/min/kg and a half-life at 1 μM of 6.47 min. In addition, the “% Py Suppression” value with Plasmodium yoelii [3] is given as 30%.

The values are drawn from paper PMC12744908 (Journal of medicinal chemistry, 2025).
